# Legend:
# [1] = target: T1, serotonin (5-HT) reuptake (Rattus norvegicus, UniProt P31652); test: Inhibition of serotonin (5HT) reuptake in synaptosomes from rat brain; type: biochemical; conditions: test concentration of 10 μM; for inhibition at 10 µM: read-out: 5-HT (inhibition of reuptake of serotonin, % inhibition)
# T1 construct: synaptosomes are freshly isolated from areas of the rat brain; from tissue; host or cells: rat brain synaptosomes (P2 fraction)
# How it was run: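 Compounds screened at 10 μM and reported as percent inhibition of serotonin uptake. Uptake measured in a freshly prepared P2 synaptosomal fraction from rat brain.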
# [2] = target: T2, human bradykinin 1 receptor (B1R) (Homo sapiens, UniProt P46663); test: Functional investigation on the human bradykinin 1 receptor (B1R), Ca2+ FLIPR assay in CHO K1 hB1R cells; type: cell-based; conditions: test substance 10 μM, Ca2+ FLIPR, CHO K1 hB1R cells; for B1R Ant. h [10 μM] % Inhibition: B1R antagonism human; for inhibition at 10 µM: CHO-K1, B1R antagonism human, read-out: B1R Ant. h [10 μM] % Inhibition
# T2 construct: expressed in transfected cells; host or cells: CHO K1 cells
# T2 sequence (P46663 1-353): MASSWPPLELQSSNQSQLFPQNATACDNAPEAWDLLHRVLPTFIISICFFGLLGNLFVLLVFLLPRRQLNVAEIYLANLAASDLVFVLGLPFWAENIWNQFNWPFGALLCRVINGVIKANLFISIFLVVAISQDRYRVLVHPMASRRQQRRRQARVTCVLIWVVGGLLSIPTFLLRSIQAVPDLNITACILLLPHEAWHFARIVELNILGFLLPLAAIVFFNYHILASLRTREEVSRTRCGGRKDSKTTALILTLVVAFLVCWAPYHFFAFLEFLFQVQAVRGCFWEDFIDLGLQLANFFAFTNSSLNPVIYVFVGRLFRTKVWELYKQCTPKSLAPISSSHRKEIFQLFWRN
# How it was run: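 Fluo-4 Ca2+ readout, peak fluorescence. Stable CHO K1 transfectants; compound pre-incubated 10-20 min, then EC80 agonist—Lys-Des-Arg9-BK for hB1R, Des-Arg9-BK for rB1R. % inhibition vs maximal inhibition; IC50 from multiple concentrations, duplicate/triplicate, ≥2 independent runs.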
# T1 sequence (P31652 whole entry): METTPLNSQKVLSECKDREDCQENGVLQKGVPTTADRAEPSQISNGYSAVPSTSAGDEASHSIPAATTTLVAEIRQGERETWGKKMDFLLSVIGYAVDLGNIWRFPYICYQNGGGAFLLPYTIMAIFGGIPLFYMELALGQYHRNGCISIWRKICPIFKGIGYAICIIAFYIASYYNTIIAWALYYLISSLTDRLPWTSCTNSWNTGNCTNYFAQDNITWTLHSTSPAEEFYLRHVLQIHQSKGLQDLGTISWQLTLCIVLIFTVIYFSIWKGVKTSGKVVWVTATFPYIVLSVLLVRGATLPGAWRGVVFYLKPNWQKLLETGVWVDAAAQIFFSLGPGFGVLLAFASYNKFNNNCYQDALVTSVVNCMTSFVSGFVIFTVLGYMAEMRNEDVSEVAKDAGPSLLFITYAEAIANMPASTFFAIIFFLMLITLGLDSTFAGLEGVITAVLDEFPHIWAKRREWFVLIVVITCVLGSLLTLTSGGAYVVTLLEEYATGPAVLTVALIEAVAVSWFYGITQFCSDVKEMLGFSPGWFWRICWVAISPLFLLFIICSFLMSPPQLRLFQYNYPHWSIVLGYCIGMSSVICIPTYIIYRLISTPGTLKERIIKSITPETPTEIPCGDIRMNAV
SMILES,"5-HT (inhibition of reuptake of serotonin, % inhibition) ([1]; 10 µM) [%]",B1R Ant. h [10 μM] % Inhibition [2] [%],inhibition at 10 µM [1] [%],inhibition at 10 µM [2] [%],"5-HT (inhibition of reuptake of serotonin, % inhibition) [1] [%]"
"COc1ccc(S(=O)(=O)N2CCCCC2COCC(=O)NCC2CCC(C(c3ccc(F)cc3)N(C)C)CC2)cc1OC (single isomer, unassigned) [Example 534]",88,−18,,,
"COc1ccc(S(=O)(=O)N2CCCCC2COCC(=O)NCC2CCC(C(c3ccc(F)cc3)N(C)C)CC2)cc1OC (single isomer, unassigned) [Example 537]",92,−15,,,
"COc1ccc(S(=O)(=O)N2CCCCC2CCOCC(=O)NC2CCC(C(c3cccs3)N(C)C)CC2)cc1 (stereo not shown) [Example 6, N-(4-((dimethylamino)(thiophen-2-yl)methyl)cyclohexyl)-2-(2-(1-(4-methoxyphenylsulfonyl)piperidin-2-yl)ethoxy)acetamide]",,,91,24,
"COc1ccc(S(=O)(=O)N2Cc3ccccc3CC2COCC(=O)NCC2CCC(C(c3cccs3)N(C)C)CC2)cc1 (stereo not shown) [Example 7, N-((4-((dimethylamino)(thiophen-2-yl)methyl)cyclohexyl)methyl)-2-((2-(4-methoxyphenylsulfonyl)-1,2,3,4-tetrahydroisoquinolin-3-yl)methoxy)acetamide]",,,92,47,
"CN(C)C(c1cccs1)C1CCC(CNC(=O)COCCN(C)S(=O)(=O)c2ccc(Cl)cc2Cl)CC1 (stereo not shown) [Example 8, 2-(2-(2,4-dichloro-N-methylphenylsulfonamido)ethoxy)-N-((4-((dimethylamino)(thiophen-2-yl)methyl)cyclohexyl)methyl)acetamide]",,,81,101,
"Cc1cc(C)c(S(=O)(=O)N(C)CCOCC(=O)NC2CCC(C(c3ccccc3)N(C)C)CC2)c(C)c1 (stereo not shown) [Example 63, N-(4-((dimethylamino)(phenyl)methyl)cyclohexyl)-2-(2-(N,2,4,6-tetramethylphenylsulfamido)ethoxy)acetamide]",,92,,,79
"CN(C)C(c1cccs1)C1CCC(CCNC(=O)COC2CCN(S(=O)(=O)c3cccc(C(F)(F)F)c3)C2)CC1 (stereo not shown) [Example 96, N-(2-(4-((dimethylamino)(thiophen-2-yl)methyl)cyclohexyl)ethyl)-2-(1-(3-(trifluoromethyl)phenylsulfonyl)pyrrolidin-3-yloxy)acetamide]",,,81,4,
"CN(C)C(c1cccs1)C1CCC(CNC(=O)COC2CCN(S(=O)(=O)c3ccc(F)cc3)C2)CC1 (stereo not shown) [Example 97, N-((4-((dimethylamino)(thiophen-2-yl)methyl)cyclohexyl)methyl)-2-(1-(4-fluorophenylsulfonyl)pyrrolidin-3-yloxy)acetamide]",,,91,1,
"COc1cc(C)c(S(=O)(=O)N2CCC(OCC(=O)NC3CCC(C(c4cccs4)N(C)C)CC3)C2)c(C)c1 (stereo not shown) [Example 98, N-(4-((dimethylamino)(thiophen-2-yl)methyl)cyclohexyl)-2-(1-(4-methoxy-2,6-dimethylphenylsulfonyl)pyrrolidin-3-yloxy)acetamide]",,,92,64,
"CN(C)C(c1cccs1)C1CCC(CCNC(=O)COCCN2CCN(S(=O)(=O)c3ccccc3)CC2)CC1 (stereo not shown) [Example 99, N-(2-(4-((dimethylamino)(thiophen-2-yl)methyl)cyclohexyl)ethyl)-2-(2-(4-(phenylsulfonyl)piperazin-1-yl)ethoxy)acetamide]",,,95,-8,
"CN(C)C(c1cccs1)C1CCC(CCNC(=O)COC2CCCN(S(=O)(=O)c3ccccc3)C2)CC1 (stereo not shown) [Example 100, N-(2-(4-((dimethylamino)(thiophen-2-yl)methyl)cyclohexyl)ethyl)-2-(1-(phenylsulfonyl)piperidin-3-yloxy)acetamide]",,,97,-3,
"CN(C)C(c1cccs1)C1CCC(CNC(=O)COCC2CCCN(S(=O)(=O)c3ccccc3)C2)CC1 (stereo not shown) [Example 101, N-((4-((dimethylamino)(thiophen-2-yl)methyl)cyclohexyl)methyl)-2-((1-(phenylsulfonyl)piperidin-3-yl)methoxy)acetamide]",,,94,0,
"CN(C)C(c1cccs1)C1CCC(CNC(=O)COCCN(Cc2ccccc2)S(=O)(=O)c2ccccc2)CC1 (stereo not shown) [Example 102, 2-(2-(N-benzylphenylsulfonamido)ethoxy)-N-((4-((dimethylamino)(thiophen-2-yl)methyl)cyclohexyl)methyl)acetamide]",,,92,-4,
"CCN(CCOCC(=O)NCCC1CCC(C(c2cccs2)N(C)C)CC1)S(=O)(=O)c1c(C)cc(OC)c(C)c1C (stereo not shown) [Example 103, N-(2-(4-((dimethylamino)(thiophen-2-yl)methyl)cyclohexyl)ethyl)-2-(2-(N-ethyl-4-methoxy-2,3,6-trimethylphenylsulfonamido)ethoxy)acetamide]",,,95,90,
"COc1cc(C)c(S(=O)(=O)N2CCC(OCC(=O)NCC3CCC(C(c4cccs4)N(C)C)CC3)CC2)c(C)c1C (stereo not shown) [Example 104, N-((4-((dimethylamino)(thiophen-2-yl)methyl)cyclohexyl)methyl)-2-(1-(4-methoxy-2,3,6-trimethylphenylsulfonyl)piperidin-4-yloxy)acetamide]",,,93,24,
"COc1ccc(S(=O)(=O)N2CCCC2COCC(=O)NCC2CCC(C(c3cccs3)N(C)C)CC2)cc1 (stereo not shown) [Example 105, N-((4-((dimethylamino)(thiophen-2-yl)methyl)cyclohexyl)methyl)-2-((1-(4-methoxyphenylsulfonyl)pyrrolidin-2-yl)methoxy)acetamide]",,,95,33,
"COc1ccc(S(=O)(=O)N2CCCCC2COCC(=O)NCC2CCC(C(c3ccccc3)N(C)C)CC2)c(OC)c1 (stereo not shown) [Example 106, 2-((1-(2,4-dimethoxyphenylsulfonyl)piperidin-2-yl)methoxy)-N-((4-((dimethylamino)(phenyl)methyl)cyclohexyl)methyl)acetamide]",,,85,4,
"COc1ccc(S(=O)(=O)N2CCCCC2COCC(=O)NCCC2CCC(C(c3cccs3)N(C)C)CC2)c(OC)c1 (stereo not shown) [Example 107, 2-((1-(2,4-dimethoxyphenylsulfonyl)piperidin-2-yl)methoxy)-N-(2-(4-((dimethylamino)(thiophen-2-yl)methyl)cyclohexyl)ethyl)acetamide]",,,90,-4,
"CN(C)C(c1ccccc1)C1CCC(CNC(=O)COCCN(C)S(=O)(=O)c2ccc(Cl)cc2)CC1 (stereo not shown) [Example 110, 2-(2-(4-chloro-N-methylphenylsulfonamido)ethoxy)-N-((4-((dimethylamino) (phenyl)methyl)cyclohexyl)methyl)acetamide]",,,94,21,
"COc1cc(C)c(S(=O)(=O)N(C)CCOCC(=O)NC2CCC(C(c3cccs3)N(C)C)CC2)c(C)c1 (stereo not shown) [Example 111, N-(4-((dimethylamino)(thiophen-2-yl)methyl)cyclohexyl)-2-(2-(4-methoxy-N,2,6-trimethylphenylsulfonamido)ethoxy)acetamide]",,,85,102,
